Laboratory results from US20150087969A1, “SYSTEMS AND METHODS FOR OPTICALLY GUIDED PLACEMENT AND MONITORING OF MEDICAL IMPLANTS” (Children's National Medical Center, priority 2013, published 2015).

Assays:
[1] = test system: Human Umbilical Vein Endothelial (HUVEC) cells; test: Endothelial cell adhesion to films; assay type: cell-based; settings: HUVECs seeded on films, one hour, Calcein AM/propidium iodide
Experimental: To determine if endothelial cells bind to the catheters, 19 mm films are cut and affixed to the bottom of suspension 12-well culture plates with 50 μL of 10 mg/mL collagen Type I isolated from rat tails. Plates are incubated for 30 minutes to allow for collagen polymerization. Films are seeded with 100 cells/cm^2 and incubated for one hour. Wells are washed with PBS to remove non-adherent cells and stained with Calcein AM and propidium iodide to aid in visualization of cell binding. The number and cell health of adherent cells is analyzed with fluorescence microscopy and compared to positive (collagen plates) and negative (Teflon) controls.
In order to be a viable biomaterial, cell adhesion should be minimal in order to avoid excess damage when removing or inserting the PICC.

[2] = Thermal degradation by thermogravimetric analysis (TGA); assay type: physicochemical; settings: TGA in nitrogen gas at 20° C./min (n=3)
Experimental: According to an embodiment, aromatic polyether-based medical grade thermoplastic polyurethane (TPU) pellets can be mixed with and without IRDye 800CW to form TPU Composite and Plain TPU using a hydraulic platen press. […] The temperature at which the samples begin to decrease sharply in weight is determined to be their degradation point. According to an embodiment, thermal degradation temperatures are evaluated using a Q50 Thermogravimetric Analyzer (TGA), wherein the analysis is conducted in nitrogen gas at 20° C./min (n=3), where n is the number of times the experiment has been performed.
Furthermore, the degradation temperatures are considerably higher than the processing temperature of TPU (195° C.).

[3] = Stability of IRDye 800CW fluorescent signal in PBS at 37° C.; assay type: physicochemical; settings: PBS at 37° C. with gentle agitation, 12 days
Experimental: According to another embodiment of the disclosure, in order to determine the long-term effect of being implanted in vivo, catheters are leached in phosphate buffered saline powder (PBS) for 23 days to determine the amount of dye retained within the matrix. TPU Composite tubes are cut into thin slices, weighed, and added to a black 96 well plate containing 200 μl PBS. Leaching of IRDye 800CW from the TPU Composite (n=8) is analyzed under physiological conditions (pH ˜7.4, 37° C., with gentle agitation) in a water bath. The water bath is covered to prevent photo-bleaching. Each day, tubes can be transferred to the successive well containing PBS, and the previous day is analyzed using a micro-plate reader with excitation at 765 nm, emission at 794 nm and a sensitivity of 100. […] Further, to determine the amount of IRDye 800CW retained, a calibration curve containing serial dilutions of IRDye 800CW in PBS is used (0 to 0.00030 wt %) (R^2=0.99). Additionally, 10 mL of IRDye 800CW in PBS is placed in the water bath and 100 μL aliquots are analyzed per day for signs of signal degradation due to heat.
The retention analysis of IR Dye 800 CW within TPU matrix of FIG. 17 includes a 6.35% of the IR Dye 800 CW being released from the polymer over 23 days. […]

[4] = test system: Human Umbilical Vein Endothelial (HUVEC) cells; test: Biocompatibility (toxicity) in direct contact with endothelial cells, alamar blue and Calcein AM/propidium iodide; assay type: cell-based
Experimental: According to another embodiment of disclosure, biocompatibility studies are conducted to determine the toxicity of TPU Composite in direct contact with endothelial cells as well as the adhesion of endothelial cells to the TPU Composite. Pressed films (Plain TPU and TPU Composite) are sterilized by washing in 1×PBS for 24 hours under constant agitation, followed by a 30 minute soak in 100% ethanol and two 1 hour rinses with PBS. Biocompatibility studies include 12 well cell bind plates being seeded with Human Umbilical Vein Endothelial (HUVEC) cells (passage 4-10, cultured in complete endothelial growth medium EGM Bulletkit, LONZA) at a density of 100 cells/cm^2 for 12 hours to allow for adhesion [37° C., 5% CO2]. Films (19 mm) are placed in direct contact to the cells and incubated for an additional 72 hours, replacing media daily. Toxicity is quantitatively analyzed with alamar blue according to manufacturer's protocol. Briefly, 100 μL of alamar blue is added to the media and allowed to incubate for 1.5 hours. Fluorescence of each alamar blue was read at excitation 545 nm, emission 590 nm. Films are removed from wells and cells are stained with Calcein AM and propidium iodide according to manufacturer's protocol, fixed with 4% paraformaldehyde for 1 hour and rinsed three times with PBS for qualitative analysis of cell death. Cells are imaged with fluorescent confocal imaging (Zeiss) for proliferation, morphology changes and viability. The process is repeated with 0.025 wt % IRDye 800CW in media, cells with media as a positive control, and cells with 70% ethanol in media as a negative control.

Compound | cell adherence (qualitative, cell shape) [1] | thermal degradation temperature [2] | fluorescent signal stability in PBS [3] | Normalized Viability ([4]; 0.025 wt % in media, HUVECs, 72 hours, alamar blue, normalized to media control) | cell viability (statistics) ([4]; 72 hour incubation of HUVECs, IRDye 800CW at 0.025 wt %) | cell morphology or proliferation rates ([4]; Calcein AM and Propidium Iodide staining, HUVECs)
Collagen I: collagen Type I isolated from rat tails, positive control for cell adhesion | preferentially adhered |  |  |  |  | 
CC1(C)C(=CC=C2CCCC(C=CC3=[N+](CCCCCC(=O)[O-])c4ccc(S(=O)(=O)[O-])cc4C3(C)C)=C2Oc2ccc(S(=O)(=O)[O-])cc2)N(CCCCS(=O)(=O)[O-])c2ccc(S(=O)(=O)[O-])cc21.[Na+].[Na+].[Na+].[Na+] [IRDye 800CW] |  | 308±10 °C | no observed decrease in the fluorescent signal | 91.27 ± 8.54 | no statistical difference | no apparent change
